From patent US10434174B2, “Combination therapies using platinum agents and agents that target tumor-associated stroma or tumor cells” (BIOMED VALLEY DISCOVERIES, INC., priority 2014, dated 2019)
Square brackets hold non-standard residues; d marks the D form. Peptide text beside a SMILES is read from it. * marks the point of attachment. Dolaproine = CO[C@@H]([C@@H]1CCCN1)[C@@H](C)C(=O)O; Dil = CC[C@H](C)[C@H](NC)[C@@H](CC(=O)O)OC; X1 = C[C@@H](N*)[C@@H](O)c1ccccc1; NMeV = CN[C@H](C(=O)O)C(C)C

Tested on: OVCAR3 ovarian cancer model
Assay: M825 and M825-MMAE in OVCAR3 ovarian cancer model
Type: in vivo, mouse
Details: 0.2 mg/kg, equivalent to maximum MMAE in the 10 mg/kg ADC group
Procedure: Treatment initiated when tumor volume reached approximately 120 mm^3. M825 was given i.v. at 10 mg/kg and M825-MMAE was given i.v. at 1, 3, or 10 mg/kg, 2 times per week for 3.5 weeks. […] The 10 mg/kg ADC group was redosed on Day 56, 2 times per week.

CC[C@H](C)[C@@H]([C@@H](CC(=O)N1CCC[C@H]1[C@H](OC)[C@@H](C)C(=O)N[C@H](C)[C@@H](O)c1ccccc1)OC)N(C)C(=O)[C@@H](NC(=O)[C@@H](NC)C(C)C)C(C)C [MMAE] (H-[NMeV]V[Dil][Dolaproine]-X1)
tumor growth: No effect
